In patent publication US10647708B2, “Tetrahydroisoquinoline derived PRMT5-inhibitors” (CTXT PTY LTD, priority 2014, dated 2020):

Tests used:
[1] = target: Full-length PRMT5 enzyme co-expressed with MEP50 (Homo sapiens (Human), UniProt O14744); assay: PRMT5 Biochemical Assay; conditions: 200 nM peptide substrate, 1 μM S-Adenosyl methionine, 4 hours at 37° C., Transcreener EPIGEN fluorescence polarisation
From the text: Compounds of the invention may be tested for in vitro activity in the following assay: A histone H4 derived peptide is used as substrate (amino acid sequence: […]NH2). Full-length PRMT5 enzyme (NCBI Reference sequence NP_006100.2) was co-expressed with Hiss-MEP50 in insect cells and purified via Nickel immobilized metal affinity and gel filtration chromatography (“the enzyme”).
The […] assay reactions are run in Greiner brand black 384-well low volume plates. All reactions contained assay buffer (phosphate buffered saline, 0.01% (v/v) Tween-20, 0.01% (w/v) albumin from chicken egg white, 1 mM dithiothreitol, 200 nM peptide substrate, 1 μM S-Adenosyl methionine, and 15 ng/reaction enzyme, with the enzyme being omitted from negative control reactions. Compounds were added in a volume of 100 nL from dilution series prepared in DMSO, positive and negative control reactions receiving the same volume DMSO without compound. The plates were sealed with adhesive seals and incubated for 4 hours at 37° C. Reaction progress was measured using the Transcreener™ EPIGEN methyltransferase assay (BellBrook Labs, Madison, Wis.) as recommended by the manufacturer. To each reaction 2 μL detection mix were added, containing coupling enzymes, fluorescence polarisation tracer, and AMP antibody. […]

[2] = tested on: symmetrical dimethylation of arginine (Histone H4R3) in cell line TE11; assay: PRMT5 Biomarker Assay (Di-Methyl Histone H4R3 ELISA); format: cell-based; conditions: Homo sapiens, TE-11; TE11 cells, 72 h incubation, EpiQuik Global Di-Methyl Histone H4R3 ELISA, corrected for total protein
Protocol: Compounds of the invention may be tested for potency to inhibit symmetrical […] of arginine in the following assay:
The cell line TE11 was seeded at a density of 12,000 cells per well in 96 well tissue culture plates in DME medium and 10% foetal bovine serum, and allowed to adhere overnight under standard culture conditions (37° C., 5% CO2). Compound dilutions prepared in DMSO were added to the medium, with negative control wells reserved for treatment with DMSO only and positive controls receiving a potent PRMT5 inhibitor. The concentration of the inhibitor had been previously determined to give maximum inhibition of the methylation. After incubation for 72 h, cells were washed twice in ice-cold PBS, lysed in lysis buffer (20 mM Tris pH 7.4, 135 mM NaCl, 1.5 mM MgCl2, 1 mM EGTA, 10% glycerol and 1% Triton-X100), centrifuged at 15,000×g and the supernatants collected for subsequent analysis. The methylation level was determined using the EpiQuik™ Global Di-Methyl Histone H4R3 Quantification ELISA Kit (Epigentek, Farmingdale, N.Y.) as per the manufacturer's recommendations; in parallel the total protein amount in the lysate was quantified using a Lowry protein assay. […]

[3] = tested on: symmetrical dimethylation of arginine (Histone H4 Arginine 3) in cell line TE11; assay: Revised PRMT5 Biomarker Assay; format: cell-based; conditions: Homo sapiens, TE-11; TE11 cells, 72 hours incubation, anti-Di-Methyl Histone H4 Arginine 3 immunofluorescence, plate-reader based
Protocol: Compounds of the invention may be tested for potency to inhibit symmetrical dimethylation of arginine in the following assay:
The cell line TE11 was seeded at a density of 6,000 cells per well in 96 well optical quality tissue culture plates in DME medium and 10% foetal bovine serum, and allowed to adhere for 5 hours under standard culture conditions (37 degree Celsius, 5% CO2). Compound dilutions prepared in DMSO were added to the medium, with negative control wells reserved for treatment with DMSO only and positive controls receiving a potent PRMT5 inhibitor compound at 1 μM concentration. After incubation for 72 hours, the cells were fixed with 3.7% formaldehyde in PBS for 30 minutes at room temperature, washed with phosphate buffer saline and blocked with Odyssey blocking buffer (LI-COR, Lincoln, Nebr.). Rabbit anti-Di-Methyl Histone H4 Arginine 3 specific antibody (Epigentek) in Odyssey blocking buffer was added and incubated for 14 hours at 4 degree Celsius. After washing, anti-rabbit secondary antibody labelled with Alexa647 dye (LifeTechnologies) and Hoechst 33342 (1 μg/mL, SigmaAldrich) were added for 1 hour incubation. Plates were washed and read on a PerkinElmer Envision 2103 in fluorescence intensity scanning mode (24 scans across the well area). The methylation level information was corrected for the number of cells as expressed by the Hoechst 33342 stain, converted to percent inhibition relative to controls on the same plate and the data fitted against a four-parameter logistic model to determine the 50% inhibitory concentration (IC50 plate-reader based). Alternatively, the plates were imaged on a PerkinElmer Phenix high content imaging platform. Using a Columbus image analysis pipeline, individual nuclei were located by Hoechst 33342 stain and the methylation level was calculated from the Alexa647-related intensity in the same area. The resulting mean intensity per cell was directly converted to percent inhibition as outlined above (IC50, imager based)).

Full-length PRMT5 enzyme co-expressed with MEP50, sequence (O14744 whole entry): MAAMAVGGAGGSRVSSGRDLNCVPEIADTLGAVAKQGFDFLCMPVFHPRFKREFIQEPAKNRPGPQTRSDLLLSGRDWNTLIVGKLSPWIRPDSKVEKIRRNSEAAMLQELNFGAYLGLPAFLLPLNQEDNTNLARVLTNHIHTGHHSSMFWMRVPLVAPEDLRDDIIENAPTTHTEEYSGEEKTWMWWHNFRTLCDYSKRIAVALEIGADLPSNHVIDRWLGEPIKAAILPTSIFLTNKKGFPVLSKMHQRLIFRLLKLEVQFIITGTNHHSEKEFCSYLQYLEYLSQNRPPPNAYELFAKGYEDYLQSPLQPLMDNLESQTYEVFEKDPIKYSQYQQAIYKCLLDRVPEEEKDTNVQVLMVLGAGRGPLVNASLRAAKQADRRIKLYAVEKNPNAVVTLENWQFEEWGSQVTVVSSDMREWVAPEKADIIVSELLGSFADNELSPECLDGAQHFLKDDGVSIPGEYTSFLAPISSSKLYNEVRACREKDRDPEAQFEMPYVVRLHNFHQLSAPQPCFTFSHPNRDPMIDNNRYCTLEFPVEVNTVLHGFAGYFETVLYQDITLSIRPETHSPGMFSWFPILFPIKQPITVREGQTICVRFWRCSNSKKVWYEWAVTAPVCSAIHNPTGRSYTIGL
Full-length PRMT5 enzyme co-expressed with MEP50, sequence (Q9BQA1 whole entry partner): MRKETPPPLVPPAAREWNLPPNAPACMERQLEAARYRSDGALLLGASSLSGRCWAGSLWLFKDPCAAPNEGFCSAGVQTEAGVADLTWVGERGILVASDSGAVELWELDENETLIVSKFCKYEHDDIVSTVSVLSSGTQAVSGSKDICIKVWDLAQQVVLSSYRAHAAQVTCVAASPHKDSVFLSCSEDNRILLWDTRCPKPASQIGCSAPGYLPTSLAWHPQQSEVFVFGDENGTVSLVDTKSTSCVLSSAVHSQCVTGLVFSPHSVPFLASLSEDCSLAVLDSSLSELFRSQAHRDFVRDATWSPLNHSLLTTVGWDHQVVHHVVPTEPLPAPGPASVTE

IC50 [1]: 359 nM
IC50 [2]: 40.4 nM
IC50 [3]: 0.318 µM
Structure (SMILES): O=C(NCCC(O)CN1CCc2ccccc2C1)c1ccc(Cl)cc1 (stereo not drawn) [Compound 1, 4-Chloro-N-(4-(3,4-dihydroisoquinolin-2(1H)-yl)-3-hydroxybutyl)benzamide]
